PubChem BioAssay (NCI)
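Grown in 96-well plates, cells were treated for 48 hours with each compound at five concentrations. Insufficient inhibition: endpoint recorded as highest concentration tested. The concentration for full growth arrest is given as TGI.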

How the values were obtained:
Assay in all cases: NCI tumour cell line growth inhibition, 48 h
KM12 colon = test system: KM12 colon
HS 578T breast = test system: HS 578T breast
SK-MEL-28 melanoma = test system: SK-MEL-28 melanoma
MOLT-4 leukemia = test system: MOLT-4 leukemia
OVCAR-8 ovarian = test system: OVCAR-8 ovarian
U251 CNS = test system: U251 CNS
CAKI-1 renal = test system: CAKI-1 renal
HCT-15 colon = test system: HCT-15 colon
A498 renal = test system: A498 renal
PC-3 prostate = test system: PC-3 prostate
NCI-H23 lung = test system: NCI-H23 lung
UACC-257 melanoma = test system: UACC-257 melanoma
OVCAR-4 ovarian = test system: OVCAR-4 ovarian
HOP-62 NSCLC = test system: HOP-62 NSCLC
HL-60(TB) leukemia = test system: HL-60(TB) leukemia
M14 melanoma = test system: M14 melanoma
SF-539 CNS = test system: SF-539 CNS
RXF 393 renal = test system: RXF 393 renal
HT29 colon = test system: HT29 colon
SR leukemia = test system: SR leukemia
ACHN renal = test system: ACHN renal
SK-MEL-2 melanoma = test system: SK-MEL-2 melanoma
786-0 renal = test system: 786-0 renal
SK-MEL-5 melanoma = test system: SK-MEL-5 melanoma
SF-268 CNS = test system: SF-268 CNS
MCF7 breast = test system: MCF7 breast
HCT-116 colon = test system: HCT-116 colon
MDA-N = test system: MDA-N
K-562 leukemia = test system: K-562 leukemia
HOP-92 NSCLC = test system: HOP-92 NSCLC
NCI/ADR-RES ovarian = test system: NCI/ADR-RES ovarian
CCRF-CEM leukemia = test system: CCRF-CEM leukemia
MDA-MB-231 breast = test system: MDA-MB-231 breast
SF-295 CNS = test system: SF-295 CNS
UO-31 renal = test system: UO-31 renal
LOX IMVI melanoma = test system: LOX IMVI melanoma
NCI-H522 lung = test system: NCI-H522 lung
NCI-H226 lung = test system: NCI-H226 lung
SW-620 colon = test system: SW-620 colon
OVCAR-3 ovarian = test system: OVCAR-3 ovarian
SK-OV-3 ovarian = test system: SK-OV-3 ovarian
EKVX NSCLC = test system: EKVX NSCLC
IGROV1 ovarian = test system: IGROV1 ovarian
TK-10 renal = test system: TK-10 renal
RPMI-8226 leukemia = test system: RPMI-8226 leukemia
OVCAR-5 ovarian = test system: OVCAR-5 ovarian
MDA-MB-435 = test system: MDA-MB-435
T-47D breast = test system: T-47D breast
NCI-H460 lung = test system: NCI-H460 lung
DU-145 prostate = test system: DU-145 prostate

For `CCOC(=O)Cn1nc2ccc(Nc3c(C)[n+]([O-])c4cc(F)c(OCC)cc4[n+]3[O-])cc2n1`, the TGI (KM12 colon) was > 100 µM, the TGI (HS 578T breast) was > 100 µM and the TGI (SK-MEL-28 melanoma) was > 100 µM. For the same molecule, the TGI (MOLT-4 leukemia) was > 100 µM, the TGI (OVCAR-8 ovarian) was > 100 µM and the TGI (U251 CNS) was > 100 µM. For the same molecule, the TGI (CAKI-1 renal) was > 100 µM, the TGI (HCT-15 colon) was > 100 µM and the TGI (A498 renal) was > 100 µM. For the same molecule, the TGI (PC-3 prostate) was > 100 µM, the TGI (NCI-H23 lung) was > 100 µM and the TGI (UACC-257 melanoma) was > 100 µM. For the same molecule, the TGI (OVCAR-4 ovarian) was > 100 µM, the TGI (HOP-62 NSCLC) was > 100 µM and the TGI (HL-60(TB) leukemia) was > 100 µM. The TGI (M14 melanoma) was > 100 µM, the TGI (SF-539 CNS) was > 100 µM and the TGI (RXF 393 renal) was 51.9 µM. The TGI (HT29 colon) was > 100 µM, the TGI (SR leukemia) was > 100 µM and the TGI (ACHN renal) was 90.2 µM. For the same molecule, the TGI (SK-MEL-2 melanoma) was > 100 µM, the TGI (786-0 renal) was > 100 µM and the TGI (SK-MEL-5 melanoma) was > 100 µM. The TGI (SF-268 CNS) was > 100 µM, the TGI (MCF7 breast) was > 100 µM and the TGI (HCT-116 colon) was > 100 µM. For the same molecule, the TGI (MDA-N) was > 100 µM, the TGI (K-562 leukemia) was > 100 µM and the TGI (HOP-92 NSCLC) was 63.8 µM. For the same molecule, the TGI (NCI/ADR-RES ovarian) was > 100 µM, the TGI (CCRF-CEM leukemia) was > 100 µM and the TGI (MDA-MB-231 breast) was > 100 µM. The TGI (SF-295 CNS) was > 100 µM, the TGI (UO-31 renal) was > 100 µM and the TGI (LOX IMVI melanoma) was > 100 µM. For the same molecule, the TGI (NCI-H522 lung) was > 100 µM, the TGI (NCI-H226 lung) was > 100 µM and the TGI (SW-620 colon) was > 100 µM. The TGI (OVCAR-3 ovarian) was > 100 µM, the TGI (SK-OV-3 ovarian) was > 100 µM and the TGI (EKVX NSCLC) was > 100 µM. The TGI (IGROV1 ovarian) was > 100 µM, the TGI (TK-10 renal) was 71.8 µM and the TGI (RPMI-8226 leukemia) was > 100 µM. For the same molecule, the TGI (OVCAR-5 ovarian) was > 100 µM, the TGI (MDA-MB-435) was > 100 µM and the TGI (T-47D breast) was > 100 µM. The TGI (NCI-H460 lung) was > 100 µM and the TGI (DU-145 prostate) was > 100 µM.
